This is an account of results in US20260007133A1, “HERBICIDAL COMPOSITION COMPRISING AZINE COMPOUNDS” (BASF SE, priority 2022, published 2026).

Holding throughout (type): in vivo
Assay [1] deals with Amaranthus retroflexus. The assay can be described thus: Greenhouse pre-emergence (PRE) herbicidal test on AMARE. The method, then:
The culture containers used were plastic pots containing loamy sand with approximately 3.0% of humus as substrate. The seeds of the test plants were sown separately for each species.
The containers were irrigated gently to promote germination and growth and subsequently covered with transparent plastic hoods until the plants had rooted.
Depending on the species, the plants were kept at 10-25° C. and 20-35° C., respectively.
The test period extended over 2 to 4 weeks. During this time, the plants were tended and their response to the individual treatments was evaluated.
Evaluation was carried out using a scale from 0 to 100. 100 means no emergence of the plants, or complete destruction of at least the above-ground parts, and 0 means no damage or normal course of growth. A good herbicidal activity is given at values of at least 70, and very good herbicidal activity is given at values of at least 85.
As indicated application was either post emergent (POST) at the respective growth stage (GS) of the weed (BBCH code), or pre-emergent (PRE). […]

The test system of assay [2] is Commelina benghalensis. The assay can be described thus: Greenhouse pre-emergence (PRE) herbicidal test on COMBE. A digest of the protocol: (§1)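 Visual 0–100 rating at 20 days after treatment; 0 = normal growth, 100 = no emergence or complete kill of shoots. Pre-emergent application to seeded pots of loamy sand (~3.0% humus), species-dependent temperature 10-25° C or 20-35° C.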

For assay [3], the system named is Ambrosia artemisiifolia. The assay can be described thus: Greenhouse pre-emergence (PRE) herbicidal test on AMBEL. The settings on record: for % activity: AMBEL PRE.
Assay [4] has as its system Lolium multiflorum. The assay can be described thus: Greenhouse pre-emergence (PRE) herbicidal test on LOLMU. The settings on record: Lolium multiflorum, pre-emergence. A digest of the protocol:
as §1

For assay [5], the system named is Amaranthus retroflexus. The assay can be described thus: Greenhouse post-emergence (POST) herbicidal test on AMARE. The settings on record: Amaranthus retroflexus, post-emergence. The essentials:
(§2)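 Injury was rated visually on a 0–100 scale, where 0 is normal growth and 100 is complete above-ground kill, 20 days after treatment. Test plants at 3–15 cm height received a post-emergence spray of water-dispersed active from 5% emulsion concentrates. Pots held loamy sand with ~3.0% humus, at 10-25 °C or 20-35 °C depending on species.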

For assay [6], the system named is Abutilon theophrasti. The assay can be described thus: Greenhouse pre-emergence (PRE) herbicidal test on ABUTH. To be noted: Abutilon theophrasti, pre-emergence. A digest of the protocol:
as §1

The subject of assay [7] is Alopecurus myosuroides. The assay can be described thus: Greenhouse pre-emergence (PRE) herbicidal test on ALOMY. The settings on record: Alopecurus myosuroides, pre-emergence. A digest of the protocol:
as §1

Assay [8] relates to Echinochloa crus-galli. The assay can be described thus: Greenhouse pre-emergence (PRE) herbicidal test on ECHCG. To be noted: Echinochloa crus-galli, pre-emergence.
Assay [9] has as its system Abutilon theophrasti. The assay can be described thus: Greenhouse post-emergence (POST) herbicidal test on ABUTH. To be noted: Abutilon theophrasti, post-emergence. The essentials: as §2
Assay [10] concerns Digitaria sanguinalis. The assay can be described thus: Greenhouse post-emergence (POST) herbicidal test on DIGSA. The settings on record: Digitaria sanguinalis, post-emergence. The essentials: as §2
The subject of assay [11] is Euphorbia heterophylla. The assay can be described thus: Greenhouse pre-emergence (PRE) herbicidal test on EPHHL. To be noted: Euphorbia heterophylla, pre-emergence. The essentials:
as §1

Assay [12] concerns Echinochloa crus-galli. The assay can be described thus: Greenhouse post-emergence (POST) herbicidal test on ECHCG. The settings on record: Echinochloa crus-galli, post-emergence, 432 h. A digest of the protocol:
as §2

Assay [13] concerns Geranium pusillum. The assay can be described thus: Greenhouse post-emergence (POST) herbicidal test on GERPU. To be noted: Geranium pusillum, post-emergence, 432 h, read-out: % activity. A digest of the protocol: as §2
The subject of assay [14] is Euphorbia heterophylla. The assay can be described thus: Greenhouse post-emergence (POST) herbicidal test on EPHHL. To be noted: Euphorbia heterophylla, post-emergence, 432 h, read-out: % activity. The essentials: as §2
The mark [15] stands for this setting: Ambrosia artemisiifolia, pre-emergence, 432 h, read-out: % activity.
Setting [16] is: Commelina benghalensis, pre-emergence, 480 h, read-out: % activity.
The mark [17] stands for this setting: Ambrosia artemisiifolia, pre-emergence, 480 h, read-out: % activity.

Regarding `COc1c(Cl)ccc(-c2nc(C(=O)OCc3ccccc3)c(Cl)c(N)c2F)c1F` [Florpyrauxifen-Benzyl, florpyrauxifen-benzyl], the “% activity” value in assay [1] (AMARE PRE, use rate 5 gai/ha) is listed as 0%; in assay [2] (COMBE PRE, use rate 5 gai/ha) it was 45%; in assay [3] (use rate 1.25 gai/ha), 30%; in assay [3] (use rate 5 gai/ha), 45%.
Consider `CS(=O)(=O)NC(=O)c1cc(Oc2ccc(C(F)(F)F)cc2Cl)ccc1[N+](=O)[O-]` [Fomesafen, fomesafen], for which the inhibition at […] was found to be 0% in assay [1] (Amaranthus retroflexus, pre-emergence, 480 h, PRE, AMARE, use rate 2.5 gai/ha, 20 DAT, read-out: solo application % activity); 0% in assay [4] (480 h, PRE, LOLMU, use rate 2.5 gai/ha, 20 DAT, read-out: solo application % activity); 0% in [6] (480 h, PRE, ABUTH, use rate 2.5 gai/ha, 20 DAT, read-out: solo application % activity); 0% in [7] (480 h, PRE, ALOMY, use rate 2.5 gai/ha, 20 DAT, read-out: solo application % activity); 0% in [8] (480 h, PRE, ECHCG, use rate 2.5 gai/ha, 20 DAT, read-out: solo application % activity); 20% in assay [9] (480 h, POST, ABUTH, use rate 2.5 gai/ha, 20 DAT, read-out: solo application % activity). Besides, the inhibition at […] in assay [2] (Commelina benghalensis, pre-emergence, 480 h, PRE, COMBE, use rate 2.5 gai/ha, 20 DAT, read-out: solo application % activity) came to 10%; in assay [11] (480 h, PRE, EPHHL, use rate 2.5 gai/ha, 20 DAT, read-out: solo application % activity) it was 0%; in assay [3] (Ambrosia artemisiifolia, pre-emergence, 480 h, PRE, AMBEL, use rate 2.5 gai/ha, 20 DAT, read-out: solo application % activity), 0%. The inhibition at 10 g/ha in assay [1] (Amaranthus retroflexus, pre-emergence, 480 h, PRE, AMARE, use rate 10 gai/ha, 20 DAT, read-out: solo application % activity) stood at 25%; in assay [4] (480 h, PRE, LOLMU, use rate 10 gai/ha, 20 DAT, read-out: solo application % activity), 0%; in [5] (480 h, POST, AMARE, use rate 10 gai/ha, 20 DAT, read-out: solo application % activity), 25%; in [6] (480 h, PRE, ABUTH, use rate 10 gai/ha, 20 DAT, read-out: solo application % activity) it was 0%; in [7] (480 h, PRE, ALOMY, use rate 10 gai/ha, 20 DAT, read-out: solo application % activity), 0%; in assay [8] (480 h, PRE, ECHCG, use rate 10 gai/ha, 20 DAT, read-out: solo application % activity), 0%. Besides, the inhibition at 10 g/ha in assay [9] (480 h, POST, ABUTH, use rate 10 gai/ha, 20 DAT, read-out: solo application % activity) worked out at 20%; in assay [2] (Commelina benghalensis, pre-emergence, 480 h, PRE, COMBE, use rate 10 gai/ha, 20 DAT, read-out: solo application % activity) it was 10%; in assay [10] (480 h, POST, DIGSA, use rate 10 gai/ha, 20 DAT, read-out: solo application % activity), 25%; in assay [11] (480 h, PRE, EPHHL, use rate 10 gai/ha, 20 DAT, read-out: solo application % activity), 0%; in assay [3] (Ambrosia artemisiifolia, pre-emergence, 480 h, PRE, AMBEL, use rate 10 gai/ha, 20 DAT, read-out: solo application % activity), 0%.
Turning to `CCC(=O)Nc1ccc(Cl)c(Cl)c1` [Propanil, propanil], the inhibition at 250 g/ha was determined as 0% in [12] (POST, ECHCG, 250 gai/ha, 18 DAT, read-out: % activity solo application); 0% in assay [4] (432 h, PRE, LOLMU, 250 gai/ha, 18 DAT, read-out: % activity solo application); 10% in assay [10] (432 h, POST, DIGSA, 250 gai/ha, 18 DAT, read-out: % activity solo application). The inhibition at 500 g/ha in assay [12] (POST, ECHCG, 500 gai/ha, 18 DAT, read-out: % activity solo application) was 0%; in [4] (432 h, PRE, LOLMU, 500 gai/ha, 18 DAT, read-out: % activity solo application) it was 0%. For the same compound, the pest or weed control at 250 g/ha was 0% in assay [12] (read-out: % activity); 0% in assay [4] (432 h, read-out: % activity); 0% in [5] (432 h, read-out: % activity); 0% in assay [7] (432 h, read-out: % activity); 0% in [8] (432 h, read-out: % activity); 0% in assay [14]. The pest or weed control at 250 g/ha in [9] (432 h, read-out: % activity) turned out to be 0%; in assay [2] (Commelina benghalensis, pre-emergence, 432 h, read-out: % activity) it was 0%; in assay [10] (432 h, read-out: % activity) it was 10%; in assay [11] (432 h, read-out: % activity), 0%; in assay [3] (setting [15]), 0%. Further, the pest or weed control at 500 g/ha worked out at 0% in [12] (read-out: % activity); 0% in assay [1] (Amaranthus retroflexus, pre-emergence, 432 h, read-out: % activity); 0% in assay [4] (432 h, read-out: % activity); 0% in assay [5] (432 h, read-out: % activity); 0% in assay [6] (432 h, read-out: % activity); 40% in assay [13]. Besides, the pest or weed control at 500 g/ha in assay [7] (432 h, read-out: % activity) worked out at 0%; in [8] (432 h, read-out: % activity) it was 0%; in [9] (432 h, read-out: % activity), 5%; in [10] (432 h, read-out: % activity), 10%; in assay [3] (setting [15]), 0%.
As for `CCOC(=O)C(C)Oc1ccc(Oc2cnc3cc(Cl)ccc3n2)cc1` (stereo not drawn) [Quizalofop-Ethyl, quizalofop-ethyl], the pest or weed control at 4 g/ha in assay [1] (Amaranthus retroflexus, pre-emergence, 480 h, read-out: % activity) stood at 0%; in [4] (480 h, read-out: % activity) it was 0%; in assay [2] (setting [16]), 0%; in assay [11] (480 h, read-out: % activity), 5%; in assay [3] (setting [17]), 0%. Moreover, the pest or weed control at 2 g/ha in assay [4] (480 h, read-out: % activity) was 0%; in assay [7] (480 h, read-out: % activity), 0%; in assay [2] (setting [16]), 0%; in [3] (setting [17]), 0%.
